This is an account of results in patent publication EP0998480B1, “NUCLEOTIDE ANALOG COMPOSITION AND SYNTHESIS METHOD” (GILEAD SCIENCES, INC., priority 1997, dated 1999).

A short description of data set [1]: hygroscopicity at 92% relative humidity. Format: physicochemical. To be noted: crystals kept at 92% relative humidity and room temperature for up to 37 days.
A short description of data set [2]: solid state chemical stability on storage at elevated temperature and relative humidity. Format: physicochemical. To be noted: for BPPF% / mono(POC) PMPA fumarate%: 75% relative humidity, 0 days; for mono(POC) PMPA fumarate%: degradation product in stored BPPF. The source says:
The solid state chemical stability of cBPPF and bis(POC)PMPA•citrate salt was compared by analyzing each compound after storage under different conditions.

For data set [3] the following is noted: human, in vivo.

As for “9-[2-(R)-[[Bis[[(isopropoxycarbonyl)oxy]methoxy]phosphinoyl]methoxy]propyl]adenine• fumaric acid [BPPF]”, the hygroscopicity entry in data set [1] is on record as “not hygroscopic”. In data set [2] (40°C), the BPPF% is listed as 99.0% and the “mono(POC) PMPA fumarate%” value was 1.0%. Besides, in data set [2] (60°C), the BPPF% was 99.0% and the “mono(POC) PMPA fumarate%” value came to 1.0%. Moreover, the “solid state chemical stability compared with bis(POC)PMPA citrate salt” value in data set [2] (powder, storage at elevated temperature and relative humidity) is given as “more stable”. For the same substance, the oral bioavailability in data set [3] was 30-40%.
